The record followed here is paper PMC9250534, “Synthesis and direct assay of large macrocycle diversities by combinatorial late-stage modification at picomole scale” (Nature Communications, 2022).

The target of the experiment is T1, thrombin (Homo sapiens, UniProt P00734).
T1 construct: consists of two polypeptide chains of 36 (light chain) and 259 amino acid
The experiment is described as follows: Thrombin inhibition screen of crude macrocycle reactions (residual thrombin activity, fluorogenic substrate Z-Gly-Gly-Arg-AMC). The format is biochemical. The note with it: 10 µM macrocycle concentration; for % thrombin activity, Original screen / % thrombin activity, Repeat screen: macrocycles containing acid 14, crude reaction; for % thrombin activity, Repeat screen: replicate reaction and screen; for percent residual thrombin activity: crude reactions, Library 1a-l, scaffold AA1-AA2-AA3 combined with 1-16 or '-'. The procedure, abridged: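 Each crude macrocycle (10 μM) was preincubated 10 min at room temperature with thrombin (2 nM final) in Tris-Cl pH 7.4 containing NaCl, MgCl2, CaCl2, 0.1% BSA, 0.01% Triton X-100 and 0.6% DMSO. Z-Gly-Gly-Arg-AMC (50 μM final) was then added. Inhibition came from fluorescence slopes relative to DMSO-only controls.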

Numbered stars: 1 amine (or outer) side, 2 acyl side, 3 side chain; on linkers, the order of the positions; unused ones are H or OH. Bridge positions count the residues as written; N and C are the ends. Square brackets hold non-standard residues; d marks the D form. Peptide text beside a SMILES is read from it. * marks the point of attachment. 1,2,3Thiadiazole5CO(4-Me) = Cc1nnsc1C(=O)*; Isoorotoyl = O=C(c1c[nH]c(=O)[nH]c1=O)*; Nicotinoyl(6-OMe) = COc1ccc(C(=O)*)cn1; 2Thenoyl(5-Cl) = O=C(c1ccc(Cl)s1)*; Cysteamide = C(CS[*:3])N[*:1]; 4Amb = NCc1ccc(C(=O)O)cc1; Isovaleryl = CC(C)CC(=O)*; Orn = NCCC[C@H](N)C(=O)O; 2Furoyl = O=C(c1ccco1)*; Bz = O=C(c1ccccc1)*; Mpa = O=C(O)CCS

For `O=C1CCSSCCNC(=O)[C@@H](CNC(=O)c2ccc(Cl)s2)NC(=O)c2cccc(c2)CNC(=O)[C@H](Cc2c[nH]c3ccccc23)N1` [X W B5 D4], the “% thrombin activity, Original screen” value is 103.8% and the “% thrombin activity, Repeat screen” value is recorded as 106.8%. Regarding `O=C1CCSSCCNC(=O)c2ccc(cc2)CNC(=O)[C@H](CCCCNC(=O)c2ccc(Cl)s2)NC(=O)[C@@H](Cc2ccccc2)N1` [X f D1 B3], the “% thrombin activity, Original screen” value was determined as 100.5% and the “% thrombin activity, Repeat screen” value is reported as 105.5%. Regarding `O=C1CCSSCCNC(=O)[C@@H]2CCCN2C(=O)[C@H](Cc2ccc(O)cc2)NC(=O)[C@H](CCCNC(=O)c2ccco2)N1` [D2-Y-B1/16] ([Mpa][Orn](2Furoyl)YP-Cysteamide; disulfide 1-C), the “percent residual thrombin activity” value amounted to 105.138%. In the case of `O=C1CCSSCCNC(=O)C2CCCN(C2)C(=O)C(CCCCNC(=O)c2ccc(Cl)s2)NC(=O)C(Cc2ccc(O)cc2)N1` (stereo not shown) [X Y D1 B4], the “% thrombin activity, Original screen” value is 97.9% and the “% thrombin activity, Repeat screen” value was found to be 97.0%. For the compound `CC(C)CC(=O)NCCCC[C@@H]1NC(=O)[C@@H]2CCCN2C(=O)CCSSCCNC(=O)[C@@H](C(C)C)NC1=O` [B1-D1-v/8] ([Mpa]PK(Isovaleryl)[dV]-Cysteamide; disulfide 1-C), the “percent residual thrombin activity” value came to 112.751%. On to `O=C1CCSSCCNC(=O)C(Cc2c[nH]cn2)NC(=O)CCNC(=O)C(CNC(=O)c2ccc(Cl)s2)N1` (stereo not shown) [X D3 B2 H], for which the “% thrombin activity, Original screen” value came out at 78.9% and the “% thrombin activity, Repeat screen” value is recorded as 71.1%. As for `O=C1CCSSCCNC(=O)c2ccc(cc2)CNC(=O)[C@H](Cc2c[nH]c3ccccc23)NC(=O)[C@H](CCCNC(=O)c2ccccc2)N1` [D2-W-B3/1] ([Mpa][Orn](Bz)W[4Amb]-Cysteamide; disulfide 1-C), the “percent residual thrombin activity” value is 105.41%. `COc1ccc(C(=O)NCCCC[C@@H]2NC(=O)[C@H](Cc3ccc(O)cc3)NC(=O)CCSSCCNC(=O)[C@H]3CCCN(C3)C2=O)cn1` [Y-D1-B4/10]: the “percent residual thrombin activity” value is on record as 101.956%.

For `O=C1CCSSCCNC(=O)[C@H](CCCCNC(=O)c2c[nH]c(=O)[nH]c2=O)NC(=O)c2cccc(c2)CNC(=O)[C@H](CO)N1` [S-B5-D1/11], the “percent residual thrombin activity” value was 117.639%.

Turning to `O=C1CCNC(=O)[C@@H](CO)NC(=O)CCSSCCNC(=O)[C@H](CCCCNC(=O)c2ccco2)N1` [s-B2-D1/16], the “percent residual thrombin activity” value was 112.001%. Still for that read-out and setting: in the case of `CC[C@H](C)[C@@H]1NC(=O)CCNC(=O)[C@H](CCCNC(=O)c2ccco2)NC(=O)CCSSCCNC1=O` [D2-B2-I/16] it was 111.823%; in that of `NC(=O)CC[C@@H]1NC(=O)CCSSCCNC(=O)[C@H]2CCCN(C2)C(=O)[C@H](CCCCNC(=O)c2c[nH]c(=O)[nH]c2=O)NC1=O` [Q-D1-B4/11], 113.771%; in that of `CC(C)CC(=O)NCCC[C@@H]1NC(=O)C2(CC2)CNC(=O)CCSSCCNC(=O)[C@H](Cc2ccc(O)cc2)NC1=O` [B6-D2-Y/8], 103.129%.

In the case of `Cc1nnsc1C(=O)NCCC[C@@H]1NC(=O)CCSSCCNC(=O)[C@H](Cc2ccc(O)cc2)NC(=O)c2cccc(c2)CNC1=O` [D2-B5-Y/15], the “percent residual thrombin activity” value amounted to 91.9104%.

`O=C1CCSSCCNC(=O)c2cccc(c2)CNC(=O)[C@@H](CNC(=O)c2ccc(Cl)s2)NC(=O)[C@@H](Cc2c[nH]c3ccccc23)N1` [X w D4 B5]: the “% thrombin activity, Original screen” value is 95.1% and the “% thrombin activity, Repeat screen” value was found to be 100.3%.

On to `CC(C)[C@H]1NC(=O)c2cccc(c2)CNC(=O)[C@H](CCCNC(=O)c2c[nH]c(=O)[nH]c2=O)NC(=O)CCSSCCNC1=O` [D2-B5-v/11], for which the “percent residual thrombin activity” value came out at 108.83%. Same read-out and setting: the result for `CC(C)CC(=O)NCCC[C@@H]1NC(=O)c2ccc(cc2)CNC(=O)[C@H](CO)NC(=O)CCSSCCNC1=O` [S-B3-D2/8] reads 113.923%. On to `O=C(NCCC[C@@H]1NC(=O)[C@H](CO)NC(=O)[C@@H]2CCCN2C(=O)CCSSCCNC1=O)c1c[nH]c(=O)[nH]c1=O` [B1-s-D2/11] ([Mpa]PS[Orn](Isoorotoyl)-Cysteamide; disulfide 1-C), for which the “percent residual thrombin activity” value is on record as 111.409%.

Regarding `Cc1nnsc1C(=O)NCCCC[C@@H]1NC(=O)[C@@H]2CCCN2C(=O)CCSSCCNC(=O)[C@H](CCC(N)=O)NC1=O` [B1-D1-Q/15] ([Mpa]PK(1,2,3Thiadiazole5CO(4-Me))Q-Cysteamide; disulfide 1-C), the “percent residual thrombin activity” value was 113.502%. As for `O=C(Cc1c[nH]c2ccccc12)NCCC[C@@H]1NC(=O)CCSSCCNC(=O)[C@H](Cc2ccc(O)cc2)NC(=O)c2cccc(c2)CNC1=O` [D2-B5-Y/12], the “percent residual thrombin activity” value stood at 99.266%. Same read-out and setting: the result for `COc1ccc(C(=O)NCCCC[C@@H]2NC(=O)[C@@H](CO)NC(=O)[C@@H]3CCCN3C(=O)CCSSCCNC2=O)cn1` [B1-s-D1/10] ([Mpa]P[dS]K(Nicotinoyl(6-OMe))-Cysteamide; disulfide 1-C) reads 110.704%; that for `C[C@H]1NC(=O)CCSSCCNC(=O)c2cccc(c2)CNC(=O)[C@H](CCCCNC(=O)COc2ccccc2)NC1=O` [a-D1-B5/13], 105.866%; that for `NCCCC[C@@H]1NC(=O)CCSSCCNC(=O)[C@@H]2CCCN2C(=O)[C@H](CCC(N)=O)NC1=O` [D1-Q-B1/-] ([Mpa]KQP-Cysteamide; disulfide 1-C), 108.142%. In the case of `CC1NC(=O)CCSSCCNC(=O)C(CCCCNC(=O)c2ccc(Cl)s2)NC(=O)C2CCCN2C1=O` (stereo not shown) [X a B1 D1] ([Mpa]APK(2Thenoyl(5-Cl))-Cysteamide; disulfide 1-C; configuration not given here), the “% thrombin activity, Original screen” value turned out to be 106.8% and the “% thrombin activity, Repeat screen” value was 115.5%. For `CC(C)[C@@H]1NC(=O)[C@H]2CCCN(C2)C(=O)[C@H](CCCNC(=O)c2ccc(Cl)s2)NC(=O)CCSSCCNC1=O` [D2-B4-V/14], the “percent residual thrombin activity” value is on record as 102.581%.

As to `CC(C)C[C@@H]1NC(=O)CCSSCCNC(=O)[C@H](CCCNC(=O)Cc2c[nH]c3ccccc23)NC(=O)[C@H]2CCCN(C2)C1=O` [L-B4-D2/12], the “percent residual thrombin activity” value stood at 105.489%. For `O=C(COc1ccccc1)NCCC[C@@H]1NC(=O)CCSSCCNC(=O)[C@H](Cc2cnc[nH]2)NC(=O)c2cccc(c2)CNC1=O` [D2-B5-H/13], the “percent residual thrombin activity” value worked out at 105.187%. The same measure, in the same setting: the result for `O=C(COc1ccccc1)NCCCC[C@@H]1NC(=O)CCNC(=O)[C@@H](CO)NC(=O)CCSSCCNC1=O` [s-B2-D1/13] reads 112.63%; that for `O=C(NCCCC[C@@H]1NC(=O)[C@@H](Cc2c[nH]c3ccccc23)NC(=O)[C@H]2CCCN(C2)C(=O)CCSSCCNC1=O)c1ccccc1` [B4-W-D1/1], 101.061%.

For the compound `O=C1CCSSCCNC(=O)[C@H](CCCCNC(=O)c2ccccc2)NC(=O)[C@H](Cc2ccc(O)cc2)NC(=O)C2(CC2)CN1` [B6-Y-D1/1], the “percent residual thrombin activity” value was found to be 104.596%.

Regarding `CC(C)CC(=O)NCCCC[C@@H]1NC(=O)CCSSCCNC(=O)[C@@H](Cc2ccc(O)cc2)NC(=O)[C@H]2CCCN(C2)C1=O` [D1-B4-y/8], the “percent residual thrombin activity” value turned out to be 108.143%.
